The values that follow come from patent US8377895B2, “Cyclin-dependent protein kinases inhibitors of Scutellaria flavonoid organic amine derivatives, synthesis and use thereof” (priority 2008, dated 2013).

As a reminder, the IC50 is the concentration that gives 50% inhibition. High values mean weaker potency in that assay, low ones greater potency in that assay. Broadly, the GI50 is the concentration that inhibits growth by half. A word on the inhibition: it is the percentage by which the read-out fell short of the control. By half-life is commonly meant how long it takes for the measured level to halve. Higher therefore signals slow loss. For orientation: solubility means how much of the substance goes into solution per volume. The low end stands for little dissolved substance, the high end for much dissolved substance. Broadly, the LC50 is the concentration that kills 50% of the test population. Higher therefore signals a less lethal substance. The term fraction unbound denotes free concentration divided by total concentration.

The target of one series is Cdk1/Cyclin B (Homo sapiens, UniProt P06493). The experiment in a line: Cdk1/Cyclin B inhibitory activity, Z'-LYTE Kinase Assay. It is filed as biochemical. The settings on record: for IC50: ATP 10 μM, 8 concentrations of 0.01-25 μM.
For a further series, the system named is MCF-7. Kind of series: cells. The settings on record: Homo sapiens; for GI50: MCF7, read-out: MCT-7 GI50; for CC50: MCF7, read-out: MCF-7 LC50.
Another series deals with CD4+T lymphocytes. The experiment in a line: Differentiate growth inhibition of CD4+T lymphocytes. The format is cell-based. The settings on record: 48 h, induced by growth factor IL-3 and IL-5, read-out: differentiate growth inhibition rates of CD4+T lymphocytes. From the text: These show a good prospect against AIDS, and are going to be prepared anti-AIDS drugs.
A short description of series [1]: Druggability screening: solubility in PBS (pH7.4). The format is physicochemical. To be noted: pH 7.4, aqueous buffer.
For series [2] the following is noted: in vivo.
The subject of a further series is Prostate (PC-3). Kind of series: Anticancer activity in vitro (Table 3), PC-3. It is filed as cell-based, human. The settings on record: 48 h; for GI50 / IC50 / LC50: Homo sapiens.
A further series relates to gastric (BGC-823). Kind of series: Anticancer activity in vitro (Table 3), BGC-823. The settings on record: for BGC-823 TGI: 48 h; for GI50 / IC50 / CC50: Homo sapiens, BGC-823, 48 h; for CC50: read-out: BGC-823 LC50. It is filed as cell-based, human.
Series [3] can be described thus: Druggability screening: protein binding rate. The format is in vitro ADME.
The subject of the next series is Breast (MCF-7). The experiment in a line: Anticancer activity in vitro (Table 3), MCF-7. The settings on record: for MCF-7 TGI: 48 h; for GI50 / IC50 / CC50: Homo sapiens, MCF7, 48 h; for CC50: read-out: MCF-7 LC50. It is filed as cell-based, human.
The test system of series [4] is 58 kinds human tumor cell. The experiment in a line: NCI growth inhibition of 58 kinds human tumor cell. It is filed as cell-based. The settings on record: 48 h, by NCI, read-out: growth inhibition rates in vitro 58 kinds human tumor cell.

≈ marks a conversion by molar mass, not a printed value.

Sequence of Cdk1/Cyclin B (P06493 whole entry): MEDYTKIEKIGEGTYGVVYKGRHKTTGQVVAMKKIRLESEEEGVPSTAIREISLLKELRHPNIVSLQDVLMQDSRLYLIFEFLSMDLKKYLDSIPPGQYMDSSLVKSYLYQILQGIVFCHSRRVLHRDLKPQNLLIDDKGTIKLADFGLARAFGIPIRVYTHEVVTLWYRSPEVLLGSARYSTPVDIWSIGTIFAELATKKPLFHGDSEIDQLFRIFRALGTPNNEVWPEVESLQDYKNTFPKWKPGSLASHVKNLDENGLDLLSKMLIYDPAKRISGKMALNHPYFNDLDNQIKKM
Sequence of Cdk1/Cyclin B (P14635 whole entry partner): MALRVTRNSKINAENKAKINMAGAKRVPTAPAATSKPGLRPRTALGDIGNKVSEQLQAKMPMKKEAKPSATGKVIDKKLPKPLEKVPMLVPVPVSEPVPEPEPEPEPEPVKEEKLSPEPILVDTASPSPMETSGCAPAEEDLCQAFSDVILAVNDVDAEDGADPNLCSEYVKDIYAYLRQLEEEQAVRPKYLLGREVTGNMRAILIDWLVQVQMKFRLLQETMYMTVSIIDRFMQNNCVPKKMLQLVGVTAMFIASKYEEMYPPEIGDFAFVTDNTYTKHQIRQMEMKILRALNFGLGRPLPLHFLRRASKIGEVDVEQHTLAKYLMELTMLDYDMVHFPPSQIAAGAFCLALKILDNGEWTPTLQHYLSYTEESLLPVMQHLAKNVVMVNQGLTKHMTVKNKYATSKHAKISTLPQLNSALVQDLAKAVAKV

Take `COc1c(O)c(CN2CCNCC2)c(O)c2c(=O)cc(-c3ccccc3)oc12` [Piperazine Wogonin, 5,7-dihydroxy-8-methoxy-2-phenyl-6-(piperazin-1-ylmethyl)-4H-chromen-4-one]: the IC50 at Cdk1/Cyclin B came to 6.62 µM.

Consider `CN(C)Cc1c(O)c(O)c(O)c2c(=O)cc(-c3ccccc3)oc12` [Dimethylamine Baicalein], for which, in the series with MCF-7, the concentration for 50% growth inhibition (GI50) is 12.3 µM.

With `COc1c(O)c(CN2CCN(CCO)CC2)c(O)c2c(=O)cc(-c3ccccc3)oc12` [Hydroxyethylpiperazine Wogonin, 6-((4-(2-hydroxyethyl)piperazin-1-yl)methyl)-5,7-dihydroxy-8-methoxy-2-phenyl-4H-chromen-4-one], the inhibition at 10 µM in the series on CD4+T lymphocytes came to 55%. Moreover, the half-life in the series “in vivo” is 4 h. This compound also yielded a 50% inhibitory concentration (IC50) at Cdk1/Cyclin B of 0.32 µM. Also, the solubility in [1] is 9390 µM (≈ 4000 µg/mL). In the series with MCF-7, the CC50 was 43.1 µM and the concentration for 50% growth inhibition (GI50) is 11.1 µM. The compound also returned a Blood drug concentration in [2] of 94.0 µM.

In turn, `COc1c(O)c(CN2CCCCC2)c(O)c2c(=O)cc(-c3ccccc3)oc12` [Piperidine Wogonin, 5,7-dihydroxy-8-methoxy-2-phenyl-6-(piperidin-1-ylmethyl)-4H-chromen-4-one] came in with an IC50 against Cdk1/Cyclin B of 10.5 µM.

In the case of `COc1c(O)c(CN2CCOCC2)c(O)c2c(=O)cc(-c3ccccc3)oc12` [Morpholine Wogonin, 5,7-dihydroxy-8-methoxy-6-(morpholinomethyl)-2-phenyl-4H-chromen-4-one], the IC50 on Cdk1/Cyclin B is greater than 25 µM.

Turning to `O=c1cc(-c2ccccc2)oc2c(CN3CCCC3)c(O)c(O)c(O)c12` [Pyrrolidine Baicalein], the concentration for 50% growth inhibition (GI50) with MCF-7 stood at 10.3 µM.

`COc1c(O)c(CN2CCCC2)c(O)c2c(=O)cc(-c3ccccc3)oc12` [Pyrrolidine Wogonin, 5,7-dihydroxy-8-methoxy-2-phenyl-6-(pyrrolidin-1-ylmethyl)-4H-chromen-4-one]: the half-maximal inhibitory concentration (IC50) against Cdk1/Cyclin B came to 17.2 µM.

Consider `O=C(O)[C@H]1O[C@@H](Oc2cc3oc(-c4ccccc4)cc(=O)c3c(O)c2O)[C@H](O)[C@@H](O)[C@@H]1O` [Baicalin, reference compound], for which, at Cdk1/Cyclin B, the “inhibition against Cdk1/Cyclin B (in words)” value is recorded as “slight inhibition” and the concentration for half-maximal inhibition (IC50) stood at 18.1 µM.

With `O=c1cc(-c2ccccc2)oc2c(CN3CCCCC3)c(O)c(O)c(O)c12` [Piperidine Baicalein], in the series on MCF-7, the CC50 is 37.2 µM and the GI50 worked out at 10.5 µM.

On Cdk1/Cyclin B, `COc1c(O)c(CN2CCN(C)CC2)c(O)c2c(=O)cc(-c3ccccc3)oc12` [Methylpiperazine Wogonin, 6-((4-methylpiperazin-1-yl)methyl)-5,7-dihydroxy-8-methoxy-2-phenyl-4H-chromen-4-one] yielded a 50% inhibitory concentration (IC50) greater than 25 µM.

At Cdk1/Cyclin B, `O=c1cc(-c2ccccc2)oc2c(CN3CCC(O)C3)c(O)c(O)c(O)c12` (stereo not drawn) [Hydroxylpyrrolidine Baicalein, 5,6,7-trihydroxy-8-((3-hydroxypyrrolidin-1-yl)methyl)-2-phenyl-4H-chromen-4-one] had a half-inhibitory concentration (IC50) of 0.29 µM.

`O=c1cc(-c2ccccc2)oc2c(CN3CCN(CCO)CC3)c(O)c(O)c(O)c12` [Hydroxyethylpiperazine Baicalein, 5,6,7-trihydroxy-8-((4-(2-hydroxyethyl)piperazin-1-yl)methyl)-2-phenyl-4H-chromen-4-one] had a half-life in the series “in vivo” of 3.75 h. The compound further showed an IC50 on Cdk1/Cyclin B of 0.28 µM. This compound showed a solubility in [1] of 607 µM (≈ 250 µg/mL). For the same compound, in the series with Prostate (PC-3), the “PC-3 TGI” value came out at 15.4 µM, the GI50 turned out to be 6.2 µM, the 50% inhibitory concentration (IC50) is 11.6 µM and the median lethal concentration (LC50) is 36.6 µM. Also, in the series on gastric (BGC-823), the “BGC-823 TGI” value is 15.4 µM, it took 6.1 µM to inhibit growth by half (GI50), the IC50 stood at 19.3 µM and the CC50 is 51 µM. For the same compound, in the series with MCF-7, the CC50 turned out to be 42.1 µM and the GI50 stood at 13.1 µM. This compound also had an unbound share (fraction unbound) in series [3] of 0.04. Further, the Blood drug concentration in series [2] was found to be 31.6 µM. For the same compound, in the series on Breast (MCF-7), the “MCF-7 TGI” value is 15.4 µM, halving of growth (GI50) required 6 µM, the half-inhibitory concentration (IC50) came to 20.4 µM and the CC50 stood at 32.6 µM. The inhibition at 10 µM in series [4] turned out to be 46.2%.

Compound `O=c1cc(-c2ccccc2)oc2c(CN3CCNCC3)c(O)c(O)c(O)c12` [Piperazine Baicalein] gave a half-maximal inhibitory concentration (IC50) against Cdk1/Cyclin B of 0.28 µM. Further, the solubility in [1] is 166 µM (≈ 61.2 µg/mL). In addition, in the series with MCF-7, the CC50 amounted to 53.1 µM and the GI50 was determined as 13.8 µM.

Consider `COc1c(O)c(CN2CCC(O)CC2)c(O)c2c(=O)cc(-c3ccccc3)oc12` [Hydroxypiperidine Wogonin, 5,7-dihydroxy-6-((4-hydroxypiperidin-1-yl)methyl)-8-methoxy-2-phenyl-4H-chromen-4-one], for which, at Cdk1/Cyclin B, the half-inhibitory concentration (IC50) was 6.91 µM.

Consider `COc1c(O)c(CN(C)C)c(O)c2c(=O)cc(-c3ccccc3)oc12` [Dimethylamine Wogonin, 6-((dimethylamino)methyl)-5,7-dihydroxy-8-methoxy-2-phenyl-4H-chromen-4-one], for which, at Cdk1/Cyclin B, it took 7.63 µM to reach half-maximal inhibition (IC50).

On to `COc1c(O)c(CN2CCSCC2)c(O)c2c(=O)cc(-c3ccccc3)oc12` [Sulfurmorpholine Wogonin, 5,7-dihydroxy-8-methoxy-2-phenyl-6-(thiomorpholinomethyl)-4H-chromen-4-one], for which, at Cdk1/Cyclin B, it took 3.17 µM to reach half-maximal inhibition (IC50).

For `COc1c(O)c(CN2CCN(C)CC2)c2oc(-c3ccccc3)cc(=O)c2c1O` [6-OCH3— Methylpiperazine Baicalein], half-maximal inhibition against Cdk1/Cyclin B (IC50) required 0.88 µM. Also, in the series with Prostate (PC-3), the “PC-3 TGI” value stood at 76.1 µM, the GI50 amounted to 11.2 µM and the IC50 came out at 87.6 µM. In the series with gastric (BGC-823), this compound returned a GI50 of 26.2 µM and an IC50 of 115 µM. Also, in the series with MCF-7, the CC50 was greater than 100 µM and the GI50 stood at 26.1 µM.

`CN1CCC(c2c(O)cc(O)c3c(=O)cc(-c4ccccc4Cl)oc23)C1CO` (stereo not drawn) [Example P276-00, reference compound] showed an IC50 at Cdk1/Cyclin B of 0.79 µM.

Consider `O=c1cc(-c2ccccc2)oc2c(CN3CCOCC3)c(O)c(O)c(O)c12` [Morpholine Baicalein], for which, at Cdk1/Cyclin B, the IC50 was found to be 0.3 µM. Besides, in the series with MCF-7, the CC50 was 48.9 µM and the concentration for 50% growth inhibition (GI50) stood at 10.1 µM.

As for `COc1c(O)cc(O)c2c(=O)cc(-c3ccccc3)oc12` [Wogonin, reference compound], the midpoint of inhibition on Cdk1/Cyclin B, the IC50, lay at 3.5 µM.

Turning to `O=c1cc(-c2ccccc2)oc2c(CN3CCC(O)CC3)c(O)c(O)c(O)c12` [Hydroxypiperidin Baicalein, 5,6,7-trihydroxy-8-((4-hydroxypiperidin-1-yl)methyl)-2-phenyl-4H-chromen-4-one], in the series on CD4+T lymphocytes, the inhibition at 10 µM was found to be 46.2%. Also, the half-life in the series “in vivo” was 4.23 h. On Cdk1/Cyclin B, this compound yielded an IC50 of 0.3 µM. The compound further gave a solubility in series [1] of 377 µM (≈ 145 µg/mL). For the same compound, in the series on Prostate (PC-3), the “PC-3 TGI” value came to 16.4 µM, the 50% growth inhibitory concentration (GI50) was 6 µM, the IC50 came out at 18.1 µM and the median lethal concentration (LC50) came out at 41 µM. For the same compound, in the series with gastric (BGC-823), the “BGC-823 TGI” value is 16.4 µM, it took 5.7 µM to inhibit growth by half (GI50), half-maximal inhibition (IC50) required 18.6 µM and the CC50 is 53.1 µM. For the same compound, in the series on MCF-7, the CC50 was 40.1 µM and the GI50 stood at 10.2 µM. Also, in [3], the free fraction (fraction unbound) is 0.09. This compound yielded a Blood drug concentration in series [2] of 28.7 µM. In the series with Breast (MCF-7), the “MCF-7 TGI” value was found to be 16.4 µM, the GI50 worked out at 6 µM, inhibition was half-maximal at 20.1 µM (IC50) and the CC50 came to 31 µM. For the same compound, the inhibition at 10 µM in series [4] worked out at 40.6%.

Take `O=c1cc(-c2ccccc2)oc2c(CN3CCSCC3)c(O)c(O)c(O)c12` [Sulfurmorpholine Baicalein]: in the series on MCF-7, the CC50 was determined as 84.3 µM and the GI50 is 14.2 µM.

In the case of `CN1CC[C@H](c2c(O)cc(O)c3c(=O)cc(-c4ccccc4Cl)oc23)[C@H](O)C1` [Flavopiridol, reference compound], the GI50 with MCF-7 was found to be 0.048 µM.

`COc1c(O)c(CN(CCO)CCO)c(O)c2c(=O)cc(-c3ccccc3)oc12` [Diethanolamin Wogonin, 6-((bis(2-hydroxyethyl)amino)methyl)-5,7-dihydroxy-8-methoxy-2-phenyl-4H-chromen-4-one] gave an IC50 on Cdk1/Cyclin B of 0.31 µM.
